Measurements: patent publication US20050071891A1, “Repressible sterility of animals” (priority 1999, published 2005)

Assays:
Pacific oyster larvae = assay: Electroporation of oyster sperm, GUS as reporter gene; format: in vivo, Crassostrea gigas
Method: Mature oysters (Crassostrea gigas) were obtained from local hatcheries in Tasmania and New South Wales, and held in artificial seawater at 10° C. until required. Eggs were collected from 2-3 females by stripping the gonads and were pooled, rinsed on a 20 μm mesh, and left to condition in artificial sea water for 2 h. Sperm were stripped from male gonads, diluted to approximately 10,000 gametes/μl, and used immediately for electroporation-mediated nucleic acid delivery. Plasmid DNA (50 μg/ml) or double-stranded RNA (dsRNA; 1 μg/ml) was delivered into 1×10^6 sperm using a BioRad Gene Pulser II electroporator in 0.2 cm gap electroporation cuvettes. Sperm were subjected to a single electroporation pulse (50 V, 100% modulation, 10 kHz, 12.5 msec) and immediately mixed with 5000 oocytes. Fertilized embryos and developing larvae were reared at 20° C. in artificial seawater containing 0.1 μg/ml chloramphenicol. Surviving larvae were counted after 24 h development. For experiments in which the Drosophila melanogaster heat shock promoter was used to drive expression of the delivered genes, a 1 h heat shock at 37° C. was provided either at 2 h or 18 h post fertilization, and development was then permitted to proceed at 20° C.
Transfection efficiencies were also assessed in a second set of experiments that examined delivery of pHSP-GUS construct (SEQ ID NO:21). The pHSP-GUS construct was made in a two step fashion. First, the D. melanogaster heat shock promoter and terminator were isolated from the pCaSpeR-hs plasmid (Thummel and Pirrotta, 1992, Drosophila Information Service 71: 150) by PCR using the two primers: […]
GUS activity in these experiments was measured using a fluorometric assay as previously described (Jefferson, R A 1987).

HoxCG1 gene = assay: Arrested development of oyster embryos transfected with hairpin dsRNA plasmid; format: in vivo
Method: In vivo expression of dsRNA was achieved by transfecting oyster larvae with the pBiT(dHSP)-RFP-oHoxDS/BH plasmid (FIG. 21; SEQ ID NO:20), which contains the heat inducible promoter (PHSP70) from D. melanogaster driving the expression of a hairpin RNA molecule specific to the HoxCG1 gene. The construct was prepared as follows. SEQ ID NO:23 (AGAL ref #: NM99/09101) was used as a template to generate a PCR fragment using the following primers: […]
Oyster sperm were transfected with the DNA using electroporation, and oocytes were fertilized and larvae allowed to develop for 96 hours. Embryos were heat shocked for one hour at 3 hours post fertilization to induce transcription of the dsRNAs.

HoxCG1 = assay: Reversible arrested oyster larval development with tetracycline-responsive plasmid; format: in vivo; details: 72 hours
Excerpt: The second Sterile Feral Construct tested for oysters, expresses the tTA under the Drosophila HSP. The tTA then drives expression of red fluorescent protein and double stranded oyster Hox via the TRE. Three separate fragments were ligated together to form this construct. The first fragment was obtained by digestion of pBiT(dHSP)-EGFP, (Seq ID NO:19), with HindIII and NheI followed by gel purification of the appropriate fragment containing the Drosophila HSP promoter. The second fragment was obtained by digesting pBiT(dHSP)-EGFP with NotI and MluI followed by gel purification of the appropriate fragment containing the TRE. The third fragment was obtained by digesting pHSP-oHoxDS/BH with MluI and. SpeI and gel purifying the appropriate fragment containing the 510 bp fragment of the zBMP2 cDNA from sequence 301-810 in the published cDNA sequence (Lee et al., 1998). The fourth fragment was obtained by firstly subcloning into pGEM3zf a KpnI/XbaI fragment containing the coding region of red fluorescent protein (RFP) that was excised from pDsRed1-N1 (Clontech, PT3405-5) vector. The resulting plasmid was then subjected to digestion with HindIII and PspOMI and the appropriate fragment containing the coding region of RFP was then gel purified from this reaction. […]

goosecoid = assay: Cotransfection of blocker plasmids with pSFM 6 (goosecoid fused to RFP) in P19-pSFM 7 cells; format: cell-based, mouse; details: transiently cotransfected with pSFM 6
Method: (§1) Fluorescent and transmitted light images were acquired using a CCD camera with a microscope. […] The luminescence assays were conducted by using a dark 96 well plate was done by Victor2 from Wallac or by Topcount NXT from Can berra Packard.
The first stage for testing blocker constructs is to set up an appropriate cell system to detect expression of reporter constructs. Initially, either pdsRED-N1 (CMV promoter RFP), pSFM 6 (CMV promoter goosecoid cDNA fused to RFP) or pSFM 24 (TRE EGFP) were transfected into P19-pSFM 7 cells to test the expression patterns of the EGFP, RFP and goosecoid-fused to RFP proteins (FIG. 37). […] In these cases, RFP expression fused to goosecid in the nucleus is expected to be inhibited in the presence of an appropriate blocker.
In order to assess various antisense and dsRNA blockers, pSFM 6 (CMV promoter goosecoid fused to RFP) was transiently cotransfected into the P19-pSFM 7 (Goosecoid promoter TET/OFF) cells along with either pSFM 5 (TRE promoter dsRNA goosecoid), pSFM 8, (CMV promoter antisense goosecoid), pSFM 9 (TRE promoter antisense goosecoid) or pSFM 24 (TRE promoter EGFP). […] There are several potential reasons for the absence of RNA blocker effects. First, antisense and dsRNA blockers may not be expressed at levels high enough to effectively interfere with the target mRNA molecules. Secondly, there may be cellular mechanisms in mammals that recognize and interfere with such constructs. Thirdly, the RNA inhibitory molecules may not be able to access and block the RNA target.

P19 cells = assay: Luciferase activity of reporter constructs transiently transfected in P19 cells; format: cell-based, mouse; details: for luciferase activity compared to the promoterless construct (pSFM 21) / luciferase activity, Average / luciferase activity, Fold: P19 cells; for luciferase activity compared to the promoterless construct (pSFM 21): transient; for luciferase activity, Average: transient transfection; for luciferase activity, Fold: relative to pSFM 21
Method: For transient transfection assays, P19 cells were cultured on gelatinized dishes in DMEM supplemented with 10% fetal bovine serum. Cells (0.3 million per well in 6-well cluster plates) were transfected with 5 μg reporter plasmid using transfection reagent ‘Geneporter’ from Gene Therapy Systems according manufacturer's recommendation.
as §1
P19 cells were transiently transfected in 6 well plates with pSFM 20 (goosecoid promoter-luciferase), pSFM 21 (promoterless luciferase) and pSFM 23 (CMV promoter-luciferase) using Gene Porter. Cells were harvested at various times post-tranfection and assayed for luciferase activity using a Promega kit (Cat. # E1501) in a Top Count NXT luminometer. […]

P19-pSFM 7 cells [1] = assay: Luciferase activity of reporter plasmids transiently transfected in P19-pSFM 7 cells; format: cell-based, mouse; details: for luciferase activity, Fold: relative to pSFM 21; for luciferase activity, Average: transient transfection
Excerpt: Reporter plasmids pSFM 20 (goosecoid promoter luciferase+), pSFM 21 (promoterless luciferase+), pSFM 23 (CMV promoter luciferase+) and pSFM 25 (TRE luciferase+) were transiently transfected into either P19 or P19-pSFM 7 (Goosecoid TET/OFF) cells to test the effectiveness of the TET-OFF genetic switch driven by goosecoid promoter.

P19-pSFM 7 cells [2] = assay: Luciferase activity of pSFM 25 in P19 clones stably integrated with pSFM 7; format: cell-based, mouse
Method: Stably integrated P19 clones were obtained by using BioRad Gene Pulser II electroporation system. 30 μg DNA electroporated into 10 million cells under following conditions 960 μF and 0.16 kV in a 0.4 cm cuvette (0.4 kV/cm). The next day normal media were replaced with appropriate selection media (300 μg/ml G418).
Selection of a P19 cell line stably integrated with a goosecoid-dependent TET-OFF transactivator P19 cells were electroporated with pSFM 7 (Goosecoid promoter-TET/OFF) linearised with ApaLI and selected for stable integration.
Table 20 showes the luciferase activities of pSFM 25 (TRE luciferase+) shown in counts per second (cps) of transiently transfected in P19-pSFM 7 cells.
Addition of doxycycline at 1 μg/ml reduced luciferase activity from pSFM 25 in this clone by 90 fold. This clone, containing stably integrated pSFM 7 was therefore designated P19-pSFM 7 and used for further testing.

Substance | intensity or number of cells expressing RFP in the nucleus (goosecoid) | luciferase activity (P19 cells; 24 hours post-transfection) [cps] | luciferase activity (P19 cells; 48 hours post-transfection) [cps] | luciferase activity (P19 cells; 72 hours post-transfection) [cps] | luciferase activity, Average (P19 cells) | luciferase activity, Fold (P19 cells) | luciferase activity, Fold (P19-pSFM 7 cells [1]) | luciferase activity, Average (P19-pSFM 7 cells [1]) | further results
pHSP-GUS: expresses GUS under the control of the D. melanogaster heat shock promoter (SEQ ID NO:21) | – | – | – | – | – | – | – | – | GUS activity (Pacific oyster larvae; electroporation, heat shock): 83.2 ± 5.4 fluorescence units/μg protein; GUS activity relative to controls (Pacific oyster larvae; electroporation, heat shock): 19.8; GUS activity (Pacific oyster larvae; electroporation, no heat shock): 10.5 ± 0.5 fluorescence units/μg protein; GUS activity relative to controls (Pacific oyster larvae; electroporation, no heat shock): 2.5; GUS activity (Pacific oyster larvae; no electroporation, heat shock): 4.5 ± 0.5 fluorescence units/μg protein; GUS activity relative to controls (Pacific oyster larvae; no electroporation, heat shock): 1.1; % arrested development (HoxCG1 gene; no heat shock): 6 ± 2%; % arrested development (HoxCG1 gene; with heat shock (one hour at 3 hours post fertilization)): 8 ± 3%; % arrested development (HoxCG1; No doxycycline): 5 ± 3%; % arrested development (HoxCG1; With doxycycline (5 μg/μl)): 4 ± 3%
pSFM 5: Tet-responsive expression vector pTRE-goosecoid double strand RNA | significant difference could not be detected | – | – | – | – | – | – | – | –
pSFM 8: pCMV promoter expressing goosecoid antisense RNA | significant difference could not be detected | – | – | – | – | – | – | – | –
pSFM 9: Tet-responsive expression vector pTRE-goosecoid antisense RNA | significant difference could not be detected | – | – | – | – | – | – | – | –
pSFM 20: goosecoid promoter expressing luciferase+ protein | – | 1263 | 3707 | 1692 | 610 | 5 | 6 | 365 | luciferase activity compared to the promoterless construct (pSFM 21) (P19 cells): 6 fold
pSFM 21: promoterless luciferase+ | – | 254 | 604 | 252 | 121 | 1 | 1 | 60 | –
pSFM 23: pCMV promoter expressing luciferase+ | – | 78778 | 145403 | 49936 | 44491 | 367 | 267 | 16031 | luciferase activity compared to the promoterless construct (pSFM 21) (P19 cells): 200-300 fold
pSFM 25: Tet-responsive expression vector pTRE-luciferase+ | – | – | – | – | 183 | 1.5 | 6 | 368 | luciferase activity (P19-pSFM 7 cells [2]; clone 9, with doxycycline): 54858 cps; luciferase activity (P19-pSFM 7 cells [2]; clone 9, without doxycycline): 582529 cps; luciferase activity (P19-pSFM 7 cells [2]; clone 12, with doxycycline): 4396 cps; luciferase activity (P19-pSFM 7 cells [2]; clone 12, without doxycycline): 417268 cps; luciferase activity (P19-pSFM 7 cells [2]; clone 29, with doxycycline): 48260 cps; luciferase activity (P19-pSFM 7 cells [2]; clone 29, without doxycycline): 616604 cps; luciferase activity (P19-pSFM 7 cells [2]; clone 32, with doxycycline): 19548 cps; luciferase activity (P19-pSFM 7 cells [2]; clone 32, without doxycycline): 272888 cps; luciferase activity (P19-pSFM 7 cells [2]; clone 46, with doxycycline): 8013 cps; luciferase activity (P19-pSFM 7 cells [2]; clone 46, without doxycycline): 703470 cps
